Patent US20250127774A1, “COMPOUNDS FOR LABELLING NUCLEIC ACID AND USES THEREOF” (THE ROYAL INSTITUTION FOR THE ADVANCEMENT OF …, priority 2022, published 2025)
Where two headings read alike, the source gives them in different places.

What was measured:
MV4-11 and Jurkat = test: Resazurin single toxicity assay, summary over both cell lines; format: cell-based; settings: Homo sapiens, after 24 h and 72h, read-out: IC50 summarised over both cell lines
Experimental: (§1) Resazurin assays were carried out to test the effectiveness of VdU, VdA and PINK alone in MV4-11 and Jurkat. The resazurin reduction assay is a colorimetric assay which allows to determine a cell's viability based on its metabolic activities.^26 When the cells are alive, the resazurin gets reduced by NADH into its resorufin form by cellular respiration, which is pink and highly fluorescent.^26 When the cells are dead or their metabolisms are impaired, the resazurin remains in its oxidized form, which is blue and has low fluorescence.^26 The cells can then be imaged using a spectrometer to determine how viable they are after each treatment.
Overall, VdU presented itself as a good candidate for the combination therapy with PINK due to its low toxicity in the two leukemia cell lines.
(§2) Resazurin Single toxicity assay. MV4-11 and Jurkat cells were seeded in 96-well plates at a density of 20 000 cells/well, in triplicates. The cells were treated with each nucleoside (VdU/VdA) alone diluted in fresh media in 1:4 serial dilutions (˜0.01% DMSO) at concentrations of 1000-0 μM. The cells were treated with PINK alone diluted in fresh media in 1:2 serial dilutions (˜1% DMSO) at concentration of 100-0 μM. The cells were then incubated for 24 h and 72h. 10 μL of 870 μM resazurin was added per well, and incubated for 2-5 hours. After incubation, the fluorescence intensity at 590 nm (excitation=560 nm) was measured using a SpectraMax M5 plate reader.

[1] = Photophysical measurements (quantum yield) of PINK and PINK-VdU-ox; format: physicochemical; settings: excitation 488 nm, Rhodamine 6G standard; PINK in aqueous and aprotic solvents, 6 depending on the solvent used
Experimental: PINK (4) undergoes a highly fluorogenic and regioselective IEDDA reaction with VdU (5) to give “PINK-VdU-ox” (6) as a single isomer in a 76% isolated yield after 7d at 60° C. (Scheme 1). The slow rate of this non-templated reaction (Kapp=0.01 M^−1 s^−1, FIG. 5) is due to the combination of an unstrained terminal alkene and unactivated tetrazine.^[49] Over the course of the reaction, a ˜100-fold increase in fluorescence was observed (FIG. 3, c). With a quantum yield (φF)<0.2%, PINK (4) is essentially non-fluorescent in both aqueous and aprotic solvents (FIG. 6).
Highly viscous solvents, including glycerol and polyethylene glycol (PEG 200) induced higher fluorescence of 6, likely by restricting bond rotation and thus suppressing formation of a non-emissive, twisted intramolecular charge transfer (TICT) state.^[50]
Photophysical Measurements. Stock solutions (1-10 mM) of investigated compounds were prepared in DMSO and stored at −20° C. DMSO concentrations were less than 1% after dilution into the respective solvent/aqueous buffer. Measurements were collected on a SpectraMax M5 plate reader (Molecular Devices, Sunnyvale, CA, USA) in 1 cm path-length quartz cuvettes. Quantum yields were obtained by excitation at 488 nm using Rhodamine 6G ((=0.94) in EtOH (n=1.3624) as a fluorescent standard.^[1] Quantum yields were calculated using the equation I: […]

Jurkat cells [2] = test: Resazurin single toxicity assay; format: cell-based; settings: Homo sapiens, compound alone
Experimental: as §1, §2

MV4-11 cells [3] = test: Resazurin single toxicity assay; format: cell-based; settings: Homo sapiens, compound alone
Experimental: as §1, §2

MV4-11 cells [4] = test: Resazurin Chou-Talalay optimized toxicity assay; format: cell-based, human; settings: MV4-11, Fa 0.25-0.35 (25% to 35% of cells killed)
Experimental: (§3) Lastly to determine how synergistic the combination of VdU with PINK is in the three leukemia cell lines, another resazurin reduction assay was conducted where VdU and PINK were maintained at a constant 5:1 ratio. The data generated from this resazurin assay were analyzed using the synergy model developed by Chou and Talalay 30, which is based on the median effect dose (IC50) and the slope of the drug response curve, as shown in equation II: […]
(§4) The model allows to quantitatively measure the synergy of drug combinations, by generating a combination index (CI).^30 A CI below 1 indicates a synergistic interaction which means that the effect of the drug combination is greater than the effect of both drugs alone combined.^30A CI equal to 1 indicates an additive interaction which means that the effect of the drug combination is equal to the effect of both drugs alone combined.^30 A CI above 1 indicates an antagonistic interaction which means that the effect of the drug combination is less than the effect of both alone combined. […] Where a DRI above 1 is a favorable dose reduction and a DRI below 1 is an unfavorable dose reduction.^30
Resazurin Chou-Talalay optimized toxicity assay. […] The cells were treated with resazurin, incubated and measured, as described above. The data was processed and analysed in the CompuSyn program used for running Chou-Talalay synergy analyses.^33

H1299 cells = test: FACS cell cycle analysis; format: cell-based, human; settings: H1299, 48 h and 72 h after the initial treatment
Experimental: 5-VdU and PINK combinatory impact on the cell cycle. FACS analysis of H1299 cells treated with 5-VdU/PINK whos that the cell cycle progression is severely impacted upon combinatory treatment. […] (see FIG. 26). Percentage of H1299 cells undergoing apoptosis was indicated by staining with Apotracker™ Green, induced after treatment with 1 μM 5-VdU and 10 μM PINK for different time points. H1299 cells were seeded at a density of 20% and treated with 5-VdU and PINK in the indicated concentrations. One day after the last treatment, the medium was exchanged. The cells were then stained with the Apotracker™ Green dye and Hoechst. Images were taken 72h after the first treatment. (C) H1299 cells were treated with 1 μM 5-VdU for 24 h and subsequently with 5 μM PINK for another 24 h.

Jurkat cells [5] = test: Resazurin Chou-Talalay optimized toxicity assay; format: cell-based; settings: Homo sapiens, Fa 0.50 (50% cells killed), read-out: Concentration of compound alone required at Fa
Experimental: as §3, §4
(§5) Resazurin Chou-Talalay optimized toxicity assay. MV4-11, MOLM-13 and Jurkat cells were seeded in 96-well plates at a density of 20 000 cells/well, 25 000 cells/well and 30 000 cells/well, respectively, in triplicates. The cells were first treated with VdU diluted in fresh media in 1:4 serial dilutions (˜0.01% DMSO) at concentrations of 500-0 μM alone and in combination, and incubated overnight. 24h post nucleoside addition, the cells were treated with PINK diluted in fresh media in 1:4 serial dilutions (˜1% DMSO) at concentrations of 100-0 μM alone or in combination, and incubated for 72 h. […] The cells were treated with resazurin, incubated and measured, as described above. The data was processed and analysed in the CompuSyn program used for running Chou-Talalay synergy analyses.^33

MOLM-13 cells = test: Resazurin Chou-Talalay optimized toxicity assay; format: cell-based; settings: Homo sapiens; MOLM-13, Fa 0.50 (50% cells killed); read-out: Concentration of compound alone required at Fa
Experimental: as §3, §4, §5

[6] = 24 h incubation, read-out: IC50 value (24 h)
[7] = 72 h incubation, read-out: IC50 value (72 h)
[8] = MV4-11, 24 h incubation, read-out: IC50 value (24 h)
[9] = MV4-11, 72 h incubation, read-out: IC50 value (72 h)

Row | SMILES | IC50 (MV4-11 and Jurkat) [µM] | quantum yield (φF) [1] [%] | IC50 (Jurkat cells [2]; [6]) [µM] | IC50 (Jurkat cells [2]; [7]) [µM] | IC50 (MV4-11 cells [3]; [8]) [µM] | IC50 (MV4-11 cells [3]; [9]) [µM] | Concentration of compound alone required at Fa (MV4-11 cells [4]) [µM] | cell cycle profile (time course) (H1299 cells) | IC50 (Jurkat cells [5]) [nM] | IC50 (MOLM-13 cells) [nM]
1 | Cc1nnc(-c2ccc3cc4ccc(N(C)C)cc4nc3c2)nn1 [PINK] | ~5 | < 0.2 | 7 | 4.4 | 5.7 | 6.2 | 3.2 | mostly unperturbed cell cycle profiles | 1100 | 1200
2 | C=Cc1cn([C@H]2C[C@H](O)[C@@H](CO)O2)c(=O)[nH]c1=O [VdU, 5-vinyl-2′-deoxyuridine] | > 1000 | – | > 1000 | 52 | > 1000 | > 1000 | 59 | mostly unperturbed cell cycle profiles | 3700 | 4200
